In data set [1] the test system is rat primary hepatocytes.
Data set [2] relates to HepG2 cells. The settings on record: cited from earlier work.
Data set [3] relates to HepG2 cells. Put plainly: cells. The settings on record: Homo sapiens; for IC50: HepG2, read-out: MMP assays IC50 (µM) HepG2; for Emax: HepG2, read-out: MMP assays efficacy (%) HepG2.
For data set [4], the system named is rat primary hepatocytes. In words: MMP assay in rat primary hepatocytes. Particulars: for IC50: Rattus norvegicus, Hepatocyte, read-out: MMP assays IC50 (µM) Rat Hepatocytes; call rule not given here.
The mark [5] stands for this setting: read-out: MMP assays IC50 (µM) qHTS-HepG2.
Where [6] appears, read: read-out: MMP assays IC50 (µM), qHTS-HepG2.

Structures are written as SMILES. Where two headings read alike, the source gives them in different places.

For `CO[C@H]1C[C@@H]2CC[C@@H](C)[C@@](O)(O2)C(=O)C(=O)N2CCCC[C@H]2C(=O)O[C@H]([C@H](C)C[C@@H]2CC[C@@H](OCCO)[C@H](OC)C2)CC(=O)[C@H](C)/C=C(\C)[C@@H](O)[C@@H](OC)C(=O)[C@H](C)C[C@H](C)/C=C/C=C/C=C/1C` [Everolimus], the “MMP assays efficacy (%) Rat Hepatocytes” value in the data set on rat primary hepatocytes [1] is listed as -38±9%. Besides, the “MMP assays efficacy (%) qHTS-HepG2” value in the data set on HepG2 cells [2] was -96±20%. Also, the IC50 with HepG2 cells [2] (setting [5]) was 19.9 ± 2.83 µM; with HepG2 cells [3] it was 27.5 µM; with rat primary hepatocytes [4], 13 ± 7.49 µM. Besides, in the data set on HepG2 cells [3], the Emax was determined as 92%.
Take `Oc1c(Cl)c(Cl)c(Cl)c(Cl)c1Cl` [Pentachlorophenol]: in the data set with rat primary hepatocytes [1], the “MMP assays efficacy (%) Rat Hepatocytes” value is given as -119±31%. Moreover, the “MMP assays efficacy (%) qHTS-HepG2” value in the data set on HepG2 cells [2] is on record as -97±20%. Further, the half-maximal inhibitory concentration (IC50) in the data set with HepG2 cells [2] (setting [6]) was 3.09 ± 0.6 µM; with HepG2 cells [3] it was 8.9 µM; in the data set with rat primary hepatocytes [4], 4.17 ± 0.75 µM. For the same molecule, the Emax in the data set with HepG2 cells [3] amounted to 99%.
Consider `Oc1ccc(C2(c3ccc(O)cc3)CCCCC2)cc1` [Bisphenol Z], for which, in the data set on rat primary hepatocytes [1], the “MMP assays efficacy (%) Rat Hepatocytes” value was -34±12%. The “MMP assays efficacy (%) qHTS-HepG2” value in the data set with HepG2 cells [2] is reported as -101±12%. In addition, the 50% inhibitory concentration (IC50) in the data set on HepG2 cells [2] (setting [5]) was 22.2 ± 5.51 µM; with HepG2 cells [3], 19.9 µM; with rat primary hepatocytes [4] it was 14.7 ± 15.1 µM. Further, the Emax in the data set with HepG2 cells [3] worked out at 113%.
For the molecule `CC1(C)[C@H](C(=O)O[C@H](C#N)c2cccc(Oc3ccccc3)c2)[C@@H]1/C=C(\Cl)C(F)(F)F` [lambda-Cyhalothrin], the “MMP assays efficacy (%) Rat Hepatocytes” value in the data set on rat primary hepatocytes [1] is -56±14%. Besides, the “MMP assays efficacy (%) qHTS-HepG2” value with HepG2 cells [2] was -68±22%. For the same molecule, the values for the IC50 in the data set with HepG2 cells [2] (setting [6]), in the data set with HepG2 cells [3] and in the data set on rat primary hepatocytes [4] were 24.4 ± 1.59 µM, 15.8 µM and 28.2 µM, respectively. The Emax in the data set on HepG2 cells [3] is 58%.
For the molecule `CC(C)[C@H](C(=O)OC(C#N)c1cccc(Oc2ccccc2)c1)c1ccc(OC(F)F)cc1` (stereo partly drawn) [Flucythrinate], the “MMP assays efficacy (%) Rat Hepatocytes” value in the data set on rat primary hepatocytes [1] was -57±39%. In addition, in the data set with HepG2 cells [2], the “MMP assays efficacy (%) qHTS-HepG2” value is given as -84±23%. In addition, the 50% inhibitory concentration (IC50) with HepG2 cells [2] (setting [6]) is 35.7 ± 20 µM; in the data set with HepG2 cells [3], 31.6 µM; with rat primary hepatocytes [4], 43.9 ± 17.4 µM. For the same molecule, the Emax in the data set with HepG2 cells [3] was found to be 80%.
With `ClC1=C(Cl)C2(Cl)C3C4CC(C5OC45)C3C1(Cl)C2(Cl)Cl` (stereo not drawn) [Endrin], the “MMP assays efficacy (%) Rat Hepatocytes” value with rat primary hepatocytes [1] was “inactive”. For the same molecule, the “MMP assays efficacy (%) qHTS-HepG2” value with HepG2 cells [2] is listed as -75±20%. Also, in the data set with HepG2 cells [2] (setting [5]), the half-inhibitory concentration (IC50) was 23.5 ± 7.96 µM. Moreover, in the data set on HepG2 cells [3], the concentration for half-maximal inhibition (IC50) was 21.8 µM and the Emax came out at 55%. Besides, the “MMP assays IC50 (µM) Rat Hepatocytes” value with rat primary hepatocytes [4] was “inactive”.
Consider `O=C1C(I)=CC(=C(c2cc(I)c(O)c(I)c2)c2ccccc2C(=O)O)C=C1I` [Iodophthalein], for which the “MMP assays efficacy (%) Rat Hepatocytes” value in the data set on rat primary hepatocytes [1] was -96±3%. Moreover, the “MMP assays efficacy (%) qHTS-HepG2” value in the data set on HepG2 cells [2] is -95±6%. In addition, the concentration for half-maximal inhibition (IC50) is 5.31 ± 1.76 µM with HepG2 cells [2] (setting [6]), 4.35 µM in the data set on HepG2 cells [3] and 7.32 ± 0.6 µM with rat primary hepatocytes [4]. The Emax with HepG2 cells [3] is 98%.
As to `CCOc1nc2cccc(C(=O)OC(C)OC(=O)OC3CCCCC3)c2n1Cc1ccc(-c2ccccc2-c2nnn[nH]2)cc1` (stereo not drawn) [Candesartan cilexetil], in the data set on rat primary hepatocytes [1], the “MMP assays efficacy (%) Rat Hepatocytes” value was “inactive”. For the same molecule, the “MMP assays efficacy (%) qHTS-HepG2” value with HepG2 cells [2] is listed as -124±13%. Further, in the data set with HepG2 cells [2] (setting [5]), the half-inhibitory concentration (IC50) is 15.9 ± 4.62 µM. For the same molecule, in the data set with HepG2 cells [3], the IC50 came out at 11.2 µM and the Emax is 101%. Further, the “MMP assays IC50 (µM) Rat Hepatocytes” value in the data set with rat primary hepatocytes [4] is “inactive”.
On to `C=C1/C(=C\C=C2/CCC[C@]3(C)[C@@H]([C@H](C)CCCC(C)(C)O)CC[C@@H]23)C[C@@H](O)C[C@@H]1O` [Calcitriol], for which, in the data set with rat primary hepatocytes [1], the “MMP assays efficacy (%) Rat Hepatocytes” value is on record as -37±8%. Moreover, the “MMP assays efficacy (%) qHTS-HepG2” value with HepG2 cells [2] is recorded as -94±17%. The IC50 in the data set on HepG2 cells [2] (setting [5]) was 14.1 ± 4.15 µM; with HepG2 cells [3], 15.5 µM; in the data set on rat primary hepatocytes [4] it was 22.4 ± 7.17 µM. Moreover, the Emax in the data set with HepG2 cells [3] was 75%.
Turning to `O=C(NC(=O)c1c(F)cccc1F)Nc1ccc(Cl)c(Oc2ncc(C(F)(F)F)cc2Cl)c1` [Fluazuron], the “MMP assays efficacy (%) Rat Hepatocytes” value in the data set on rat primary hepatocytes [1] is -64±17%. In the data set with HepG2 cells [2], the “MMP assays efficacy (%) qHTS-HepG2” value is recorded as -66±7%. The IC50 is 3.96 ± 2.31 µM with HepG2 cells [2] (setting [6]), 12.3 µM in the data set on HepG2 cells [3] and 9.83 ± 13.6 µM with rat primary hepatocytes [4]. For the same molecule, in the data set with HepG2 cells [3], the Emax turned out to be 83%.
Turning to `ClC1=C(Cl)C2(Cl)C3C4C=CC(C4)C3C1(Cl)C2(Cl)Cl` (stereo not drawn) [Aldrin], the “MMP assays efficacy (%) Rat Hepatocytes” value in the data set with rat primary hepatocytes [1] is “inactive”. Besides, the “MMP assays efficacy (%) qHTS-HepG2” value with HepG2 cells [2] is given as -86±11%. In addition, the IC50 with HepG2 cells [2] (setting [5]) is 31.2 ± 7.21 µM. Also, in the data set with HepG2 cells [3], the concentration for half-maximal inhibition (IC50) turned out to be 39.8 µM and the Emax came out at 106%. Also, the “MMP assays IC50 (µM) Rat Hepatocytes” value with rat primary hepatocytes [4] was “inactive”.
For `CCCSP(=O)(OCC)Oc1ccc(Br)cc1Cl` (stereo not drawn) [Profenofos], the “MMP assays efficacy (%) Rat Hepatocytes” value with rat primary hepatocytes [1] was -61±47%. The “MMP assays efficacy (%) qHTS-HepG2” value in the data set with HepG2 cells [2] is -92±20%. Also, the IC50 in the data set with HepG2 cells [2] (setting [6]) was 2.54 ± 1.84 µM; with HepG2 cells [3], 6.15 µM; with rat primary hepatocytes [4], 13.2 ± 3.19 µM. Moreover, the Emax with HepG2 cells [3] was found to be 84%.
Consider `Cc1ccc2cc3c(ccc4ccccc43)c3c2c1CC3` [Compound 3-Methylcholanthrene], for which, in the data set on rat primary hepatocytes [1], the “MMP assays efficacy (%) Rat Hepatocytes” value was “inactive”. In the data set with HepG2 cells [2], the “MMP assays efficacy (%) qHTS-HepG2” value is -74±19%. Besides, the IC50 in the data set with HepG2 cells [2] (setting [5]) is 17.3 ± 13.2 µM. In addition, in the data set on HepG2 cells [3], the IC50 was determined as 25.2 µM and the Emax was determined as 66%. Besides, in the data set with rat primary hepatocytes [4], the “MMP assays IC50 (µM) Rat Hepatocytes” value is “inactive”.
Consider `NC(=O)Oc1ccc(Cc2ccccc2)cc1` [Diphenan], for which the “MMP assays efficacy (%) Rat Hepatocytes” value in the data set with rat primary hepatocytes [1] is on record as -51±6%. Further, the “MMP assays efficacy (%) qHTS-HepG2” value in the data set with HepG2 cells [2] is reported as -115±14%. The results for the IC50 in the data set on HepG2 cells [2] (setting [5]), in the data set with HepG2 cells [3] and in the data set with rat primary hepatocytes [4] were 22.3 ± 4.67 µM, 19.9 µM and 84.2 ± 39.6 µM, respectively. Besides, the Emax in the data set with HepG2 cells [3] stood at 112%.
With `CC(C)(C)c1cc(O)c(C(C)(C)C)cc1O` [2,5-Di-tert-butylbenzene-1,4-diol], the “MMP assays efficacy (%) Rat Hepatocytes” value in the data set with rat primary hepatocytes [1] is -73±5%. Besides, the “MMP assays efficacy (%) qHTS-HepG2” value in the data set on HepG2 cells [2] is given as -107±12%. The IC50 with HepG2 cells [2] (setting [5]) was 7.41 ± 1.27 µM; in the data set on HepG2 cells [3], 7.94 µM; in the data set on rat primary hepatocytes [4], 39.1 ± 15.5 µM. Further, the Emax in the data set on HepG2 cells [3] was found to be 98%.
On to `CCC(C)c1cccc(C(C)CC)c1O` (stereo not drawn) [2,6-Di(butan-2-yl)phenol], for which the “MMP assays efficacy (%) Rat Hepatocytes” value in the data set with rat primary hepatocytes [1] is “inactive”. Moreover, the “MMP assays efficacy (%) qHTS-HepG2” value in the data set with HepG2 cells [2] is -85±30%. The figures for the IC50 with HepG2 cells [2] (setting [5]) and with HepG2 cells [3] were 13.7 ± 3.19 µM and 15.8 µM, respectively. For the same molecule, the Emax with HepG2 cells [3] amounted to 110%. In the data set with rat primary hepatocytes [4], the “MMP assays IC50 (µM) Rat Hepatocytes” value is “inactive”.
On to `Nc1cccc2c(N)cccc12` [1,5-Naphthalenediamine], for which the “MMP assays efficacy (%) Rat Hepatocytes” value in the data set with rat primary hepatocytes [1] was “inactive”. Also, the “MMP assays efficacy (%) qHTS-HepG2” value in the data set with HepG2 cells [2] is on record as -76±19%. Also, the IC50 with HepG2 cells [2] (setting [5]) was 17 ± 19.6 µM. In addition, in the data set on HepG2 cells [3], the concentration for half-maximal inhibition (IC50) is 3.16 µM and the Emax is 101%. Also, the “MMP assays IC50 (µM) Rat Hepatocytes” value with rat primary hepatocytes [4] is “inactive”.
`Clc1ccc(C(c2ccc(Cl)cc2)C(Cl)(Cl)Cl)cc1` [p,p'-DDT]: the “MMP assays efficacy (%) Rat Hepatocytes” value in the data set with rat primary hepatocytes [1] is “inactive”. In addition, the “MMP assays efficacy (%) qHTS-HepG2” value in the data set on HepG2 cells [2] is -99±12%. In addition, the IC50 with HepG2 cells [2] (setting [6]) was 24.3 ± 2.74 µM. For the same molecule, in the data set on HepG2 cells [3], the half-inhibitory concentration (IC50) came out at 30.8 µM and the Emax was found to be 69%. For the same molecule, in the data set on rat primary hepatocytes [4], the “MMP assays IC50 (µM) Rat Hepatocytes” value was “inactive”.
Regarding `CC(=O)Oc1ccccc1C(=O)Nc1ncc([N+](=O)[O-])s1` [Nitazoxanide], the “MMP assays efficacy (%) Rat Hepatocytes” value in the data set on rat primary hepatocytes [1] was -94±13%. The “MMP assays efficacy (%) qHTS-HepG2” value in the data set with HepG2 cells [2] is -94±10%. In addition, the values for the IC50 in the data set on HepG2 cells [2] (setting [6]), in the data set with HepG2 cells [3] and with rat primary hepatocytes [4] were 1.04 ± 0.96 µM, 1.26 µM and 6.94 ± 4.36 µM, respectively. Besides, the Emax in the data set on HepG2 cells [3] worked out at 89%.

One may read the IC50 as the concentration that gives 50% inhibition.

Values taken from article PMC6112376, “Comprehensive Analyses and Prioritization of Tox21 10K Chemicals Affecting Mitochondrial Function by in-Depth Mechanistic Studies” (Environmental Health Perspectives, 2018).
